# According to patent US8207122B2, “Anti-cancer bioactive peptides isolated from crude venom of Xinjiang Lycosa singoriensis” (Xiamen Bioway Biotech Co., Limited, priority 2007, dated 2012):
# Where a SMILES comes first, the peptide text is derived from it. Where no end group is shown, it is not given here.
# What was measured:
# Hela cells = assay: Comparison of inhibitory activity of peptides on Hela cells; type: cell-based; settings: for activity compared with SEQ ID NO. 1: anti-cancer activity, in words
# Description: The above-mentioned experiments have verified the peptide has strong inhibition on the growth of cancer cells and solid tumors. In order to study the inhibition degree of difference sequences (SEQ. Nos. 1-5) of the peptide on tumor cells, comparative experiments of measuring the activity of Hela cells were conducted (as shown in FIG. 7).
# Nos. 1-4, at a concentration of 40 μmol/L, the inhibition rate on Hela cells was about 90%, at 20 μmol/L, about 50%, at 5 μmol/L, only 2%. Thus, the inhibition degree of SEQ. Nos. 1-4 on Hela cells was basically equal. However, for SEQ. No. 5, at a concentration of 40 μmol/L, 20 μmol/L, and 5 μmol/L, the inhibition rate on Hela cells was more than 80%. Compared with that of SEQ. Nos. 1-4, the inhibition degree of SEQ. No. 5 had been increased by about 10 times. No. 1 and SEQ. No. 5 could dissolve 19% and 37% red cells respectively, which meant the hemolytic activity of SEQ. No. 5 was […] than that of SEQ. No. 1.
# [1] = Toxicity on a whole animal, subcutaneous injection; type: in vivo; settings: 200 mg/Kg body weight, mice, within 48 hours
compound,measurement,setting,value
WFKAMKSIAKFIAKEKLK [SEQ ID NO. 4],activity compared with SEQ ID NO. 1,Hela cells,same activity
CC[C@H](C)[C@H](NC(=O)[C@H](Cc1ccccc1)NC(=O)[C@H](CCCCN)NC(=O)[C@H](C)NC(=O)[C@@H](NC(=O)[C@H](CO)NC(=O)[C@H](CCCCN)NC(=O)[C@H](CCSC)NC(=O)[C@H](C)NC(=O)[C@H](CCCCN)NC(=O)[C@H](Cc1ccccc1)NC(=O)[C@H](Cc1c[nH]c2ccccc12)NC(=O)CNC(=O)[C@H](CCCCN)NC(=O)[C@@H](N)CCCNC(=N)N)[C@@H](C)CC)C(=O)N[C@@H](C)C(=O)N[C@@H](CCCCN)C(=O)N[C@@H](CCC(=O)O)C(=O)N[C@@H](CCCCN)C(=O)N[C@@H](CC(C)C)C(=O)N[C@@H](CCCCN)C(=O)N[C@@H](CCC(=O)O)C(=O)N[C@@H](Cc1c[nH]cn1)C(=O)N[C@@H](CC(C)C)C(N)=O [SEQ. No. 1] (H-RKGWFKAMKSIAKFIAKEKLKEHL-NH2),toxic reaction,[1],no obvious toxic reaction was observed
Lys Gly Trp Phe Lys Ala Met Lys Ser Ile Ala Lys Phe Ile Ala Lys Glu Lys Met Lys Glu His Leu-NH2 (KGWFKAMKSIAKFIAKEKMKEHL-NH2; listed as Lycosa singoriensis) [SEQ ID NO. 2],activity compared with SEQ ID NO. 1,Hela cells,same activity
"CC[C@H](C)[C@H](NC(=O)[C@H](Cc1ccccc1)NC(=O)[C@H](CCCCN)NC(=O)[C@H](C)NC(=O)[C@@H](NC(=O)[C@H](CO)NC(=O)[C@H](CCCCN)NC(=O)[C@H](CCSC)NC(=O)[C@H](C)NC(=O)[C@@H](N)CCCCN)[C@@H](C)CC)C(=O)N[C@@H](C)C(=O)N[C@@H](CCCCN)C(N)=O [SEQ. No. 5, Lys Ala Met Lys Ser Ile Ala Lys Phe Ile Ala Lys-NH2] (H-KAMKSIAKFIAK-NH2)",inhibition rate on Hela cells,Hela cells; 5 μmol/L,more than 80%
same,inhibition rate on Hela cells,Hela cells; 20 μmol/L,more than 80%
same,inhibition rate on Hela cells,Hela cells; 40 μmol/L,more than 80%
Lys Gly Trp Phe Lys Ala Met Lys Ser Ile Ala Lys Phe Ile Ala Lys Glu Lys Leu Lys Glu His Leu-NH2 (KGWFKAMKSIAKFIAKEKLKEHL-NH2) [SEQ ID NO. 3],activity compared with SEQ ID NO. 1,Hela cells,same activity
